Laboratory results taken from patent US20080194877A1, “Benzamidine Derivatives for Treatment and Prevention of Cancer Therapy Induced Mucositis” ([…].p.A., priority 2005, published 2008).
Values joined by “and” are separate entries in the source; they are usually repeats but may differ in a detail not shown here. Equal entries are not always repeated. Where two headings read alike, the source gives them in different places.

Experiments:
[1] = test system: COX-2 protein expression; assay: LPS-induced COX-2 protein expression in rat macrophages (Western blot); type: cell-based; details: 30 μM; LPS 0.1 μg/ml, 24 h
Procedure: (§1) Primary cell cultures were obtained from male albino rats (SD, 200-250 g, Harlan, Italy), as described in Methods in Enzymology (Methods in Enzymology, vol. LVIII, pages 494-506). Cells were stimulated, the day after plating, with LPS, 1 μg/ml or 0.1 μg/ml as stated, for 24 h. Compounds were added 20 min before stimulation. The stimulation was performed in DMEM, 1 g/l glucose, 50 μg/ml gentamicin. Supernatants and cell lysates were collected and stored at −80° C. until use. Cytokine quantisation in supernatants was determined by means of commercially available ELISA Kits for rat TNFα, rat IL-1β and rat IL-6 (Amersham).
(§2) Western blot analysis of iNOS and COX-2: Cell lysates were analyzed by SDS-PAGE. Proteins were transferred onto PVDF membranes and saturated in blocking buffer. Membranes were incubated for 2 h at RT with the following antibodies: anti-COX-2, anti-iNOS, anti-β-actin and further incubated with a secondary antibody for 45 min at RT. Detection was performed using ECL (Amersham). Quantisation was determined by densitometry analysis using NIH Image software.
(§3) Evaluation of mediator of inflammation such as iNOS and COX-2, was performed in macrophages stimulated with 0.1 μg/ml LPS for 24 h. […]

[2] = test system: IL-1β; assay: LPS-induced IL-1β release in rat peritoneal macrophages; type: cell-based; details: LPS 1 μg/ml, 24 h
From the text: (§4) Background to the assay: Nuclear factor-κB (NF-κB), a key element in the genesis of mucositis, has the capacity to upregulate a large panel of genes, including those that result in the production of pro-inflammatory cytokines, TNFα, IL-1 and IL-6, all leading to apoptosis and tissue injury, and to up-regulate genes that can cause the expression of iNOS and cyclooxygnase-2. The third phase of mucositis is indeed characterized by the amplification of signaling triggered by pro-inflammatory cytokines. The effect of compound 1.1 was assessed in rat peritoneal macrophages.
as §1
(§5) Activation of macrophages with 1 μg/ml LPS induced an increase over basal in cytokine production.

[3] = test system: iNOs protein expression; assay: LPS-induced iNOS protein expression in rat macrophages (Western blot); type: cell-based; details: 30 μM; LPS 0.1 μg/ml, 24 h
Procedure: as §1, §2, §3

[4] = test system: rat gastric mucosa; assay: Gastric ulcer induced by indomethacin in rat; type: in vivo
From the text: Indomethacin induces the formation of acute gastric mucosal lesions. The histologic damage is represented by necrosis with loss of surface epithelium, submucosal oedema and leukocyte infiltration. The mechanism involves a neutrophil-dependent process inducing a variety of inflammatory mediators such as reactive oxygen species, and direct detrimental action by indomethacin on processes linked to epithelial proliferation and apoptosis. The epithelial repairing process is due to continuity of epithelial cells with healthy cells of gastric pits that can migrate to the basement membrane; re-epithelialization and reconstruction of the mucosal architecture is under the control of growth factors produced locally by regenerating cells.
20 male SD rats (140-160) were used. The animals were deprived of food but not water 24 hours prior the experiment. Gastric ulcer was induced in conscious rats by oral administration of 10 mg/kg/4 ml of indomethacin, suspended in methylcellulose 0.5%. The tested drug was administered 30 min by gavage (os), or 15 min by subcutaneously (sc), before indomethacin.
Four hours after indomethacin administration, the animals were sacrificed by excess of ether. The stomach was dissected out, opened along the greater curvature, and the mucosa was examined by an observer who was unaware of the treatment given. The extent of ulcers was measured with a 10× binocular fitted with a 0.1 mm-division scale. Data are presented as total length of ulcers per group.
The animals were divided into 4 groups of 5 animals, and were treated as follows:
Groups: • 1. 10 mg/kg Compound 1.1, administered prior to 10 mg/kg indomethacin, os. • 2. 5 mg/kg Compound 1.1, administered prior to 10 mg/kg indomethacin, os. • 3. 1 mg/kg Compound 1.1, administered prior to 10 mg/kg indomethacin, os. • 4. vehicle, administered prior to 10 mg/kg indomethacin, os.
Compound 1.1 was given at 1, 5 and 10 mg/kg prior to indomethacin. […] In Compound 1.1 treated groups the levels of ulcerated animals decreased dose-dependently.

[5] = test system: clonogenic crypt cells of the small intestine; assay: Mouse mucositis model (clonogenic crypt cell death induced by whole body irradiation); type: in vivo; details: for crypt width (μm) / no. crypts/circumference: average +/− sd; for corrected crypts/circumference: corrected for crypt width
From the text: There are thought to be between four and sixteen actual stem cells in each crypt of the small intestine. There are also a further reserve of clonogenic cells which are capable of regenerating the crypt when all the actual stem cells have been killed. The survival of these clonogenic cells is therefore key to the survival of the crypt and the restoration of an intact epithelial lining following cytotoxic injury (only one clonogenic cell needs to survive to ensure the survival of the crypt, and therefore the maintenance of an intact epithelium). Growth factors and other molecules can be used to manipulate the sensitivity of these cells to cytotoxic agents, and thereby reduce the severity of gastrointestinal and oral mucositis. Factors given prior to a cytotoxic insult may increase clonogenic cell number (thereby increasing the probability of clonogen survival) or act to arrest the cell cycle in such cells (thereby making them more resistant to damage or death). […] A combination of both protocols could give maximum protection to the epithelium.
The effects of administration for 3 days before radiation exposure were tested.
30 adult male BDF1 mice (aged 10-12 weeks) were used. The animals were housed for 2 weeks in individually ventilated cages on a 12 hr light:dark cycle to stabilize the circadian rhythm. Animals were allowed food and water ad libitum throughout.
The animals were divided into 5 groups of 6 animals, and were treated as follows:
Groups: • 1. Gavage 20 mg/kg Compound 1.1 72, 48 and 24 hrs prior to 13Gy X-ray exposure (whole body). • 2. Gavage 10 mg/kg Compound 1.1 72, 48 and 24 hrs prior to 13Gy X-ray exposure (whole body). • 3. Gavage 5 mg/kg Compound 1.1 72, 48 and 24 hrs prior to 13Gy X-ray exposure (whole body). • 4. Gavage vehicle 72, 48 and 24 hrs prior to 13Gy X-ray exposure (whole body). • 5. Untreated, un-irradiated controls.
Intestinal damage was induced using a single dose of 13Gy X-irradiation. Four days after irradiation the animals were sacrificed. The small intestine was removed and fixed in Carnoy's fixative prior to processing for histological analysis. 3 μm sections were cut and stained with haematoxylin and eosin. Foci of regeneration (surviving crypts with one or more clonogenic cells) were clearly visible in the irradiated sections. Other than these foci the mesenchyme was entirely denuded; these animals would develop diarrhea and die due to mucositis if allowed to live beyond four days.
For each animal ten intestinal circumferences were analyzed (60 per group)—a circumference is equivalent to a given length of intestine and therefore a convenient baseline unit of length. The number of surviving crypts per circumference was scored and the average per group determined. Only crypts containing 10 or more strongly haematoxylin and eosin stained cells (excluding Paneth cells) and only intact circumferences not containing Peyers patches were scored (Peyers patches influence both the number of crypts in a normal circumference and the ability of a crypt to survive insult).
The average crypt width (measured at its widest point) was also measured in order to correct for scoring errors due to crypt size difference. The correction is applied thus: Corrected number of crypts/circumference=

[6] = test system: IL-6; assay: LPS-induced IL-6 release in rat peritoneal macrophages; type: cell-based; details: LPS 1 μg/ml, 24 h
From the text: as §4, §1, §5

[7] = test system: ROS generation in human PMNL; assay: Inhibition of luminol-dependent chemiluminescence (ROS generation) in PMA-activated human PMNL; type: cell-based; details: for IC50: 0.1 μM PMA
Procedure: Background to the assay: One of the most important events involved in the intracellular cascade leading to NF-kB activation is the generation of oxidative stress and the increase of ROS; the inhibition of these species can contribute to reduce the direct damage to DNA and subsequent clonogenic cell death, and also to diminish the transcription factors activation. The effect of compound 1.1 on luminol-dependent chemiluminescence assay was assessed in human PMNL.
Human neutrophils were obtained from healthy volunteers. Blood was anti-coagulated with Na-Citrate 0.38% and neutrophils were purified according to Boyum (Boyum A. Scand J Clin Invest 1968;21:77-89). The neutrophil purification was achieved by gradient centrifugation on Histo-paque at 400 g for 30 min. Resulting neutrophils were suspended in PBS plus 0.87 mM CaCl2, 1 mM MgCl2, counted, and diluted to 2.5×10^6/ml. Neutrophil suspension was premixed with luminol (5 μM final). A 200 μl-aliquot of cell suspension was incubated into a 96-well plate, with drugs for 10 min at 37° C. Neutrophils were activated with 0.1 μM phorbol 12-myristate 13-acetate (PMA) and the light emission was monitored at 3 min intervals for 24 min in a HTS7000 plus microplate reader. Results were expressed as reduction of the fluorescent signal recorded for cell activated with PMA alone.
Activation of neutrophils with 0.1 μM PMA induced a time-dependent increase in signal luminescence, with a maximal increase within 10-12 min. […] The data are illustrated in FIG. 1.

[8] = test system: TNFα; assay: LPS-induced TNFα release in rat peritoneal macrophages; type: cell-based; details: LPS 1 μg/ml, 24 h
From the text: as §4, §1, §5

[9] = 25° C.
[10] = 5 mg/kg, both administration protocols (os, sc)
[11] = 5 mg/kg gavage for 3 days pre 13Gy irradiation
[12] = 10 mg/kg gavage for 3 days pre 13Gy irradiation
[13] = 20 mg/kg gavage for 3 days pre 13Gy irradiation

Structure (SMILES): CCCCCNC(=S)Nc1ccc(NC(C)=N)cc1 [Compound 1.1, N-[4-(N-acetamidine)phenyl]-N′-pentyl thiourea]
- % of inhibition COX-2 protein expression [1]: 53%
- IC50 [2]: 30 µM
- % of inhibition iNOs protein expression [3]: 79%
- Effectiveness against ulcer at the lower dose ([4]; 1 mg/kg): effective only in the os protocol administration
- Reduction of extent of ulceration ([4]; 5 mg/kg): 80-90%
- Incidence of ulcer (animals per group) [4, 10]: 3/5
- Incidence of ulcer reduced to [4, 10]: ~50%
- Ulcerated animals (maximal effect) ([4]; 10 mg/kg prior to 10 mg/kg indomethacin): no animals ulcerated
- Survival and adverse effects ([4]; rat, 1, 5 and 10 mg/kg): no obvious adverse effects
- crypt width (μm) [5, 11]: 68.54 +/− 6.6 μm
- no. crypts/circumference [5, 11]: 9.6 +/− 3.4
- corrected crypts/circumference [5, 11]: 4.7 +/− 1.3
- crypt width (μm) [5, 12]: 68.25 +/− 2.4 μm
- no. crypts/circumference [5, 12]: 9.2 +/− 4.7
- corrected crypts/circumference [5, 12]: 4.5 +/− 2.4
- Increase of crypt survival versus vehicle ([5]; 20 mg/kg): 1.9 ×
- crypt width (μm) [5, 13]: 66.19 +/− 3.0 μm
- no. crypts/circumference [5, 13]: 13.2 +/− 5.7
- corrected crypts/circumference [5, 13]: 6.7±3.0 and 6.7 +/− 3.0
- Circumferences without surviving crypt ([5]; 20 mg/kg, 4% of circumference in vehicle treated mouse): prevented the absence of surviving crypt
- Increase of crypt survival versus vehicle ([5]; lower doses (5 and 10 mg/kg)): about 1.3 times
- Survival and adverse effects ([5]; mouse, 5, 10 and 20 mg/kg): no obvious adverse effects
- IC50 [6]: 63 µM
- % of inhibition of chemiluminescence ([7]; 1 μM): 20%
- Inhibition of ROS generation ([7]; 30 μM (data not shown)): completely inhibited ROS generation
- IC50 ([7]; rising phase, at 15 min, read-out: IC50 luminol-enhanced chemiluminescence, rising phase): 6.4 ± 0.6 µM
- IC50 ([7]; steady phase, at 24 min, read-out: IC50 luminol-enhanced chemiluminescence, steady phase): 2.9 ± 0.2 µM
- IC50 [8]: 54 µM

Structure (SMILES): CCCCCNC(=S)Nc1ccc(NC(C)=N)cc1.CS(=O)(=O)O [Methanesulphonate, N-[4-(N-acetamidine)phenyl]-N′-pentyl thiourea methanesulphonate]
- Solubility in water [9]: >32 mg/mL
- Solubility in water (%) [9]: >32%

Structure (SMILES): CCCCCNC(=S)Nc1ccc(NC(C)=N)cc1.O=C(O)/C=C\C(=O)O [Maleate, N-[4-(N-acetamidine)phenyl]-N′-pentyl thiourea maleate]
- Solubility in water [9]: 3.12 mg/mL
- Solubility in water (%) [9]: 0.31%
